Measured values published in publication PMC11359915, “Rattlesnake Crotalphine Analgesic Active on Tetrodotoxin-Sensitive Na^+ Current in Mouse Dorsal Root Ganglion Neurons” (Toxins, 2024).

Key:
[1] = tested on: NaV1.7 component of the TTX-sensitive Na^+ current of DRG neurons; assay type: cell-based, adult mouse (Swiss, Mus musculus)
[2] = tested on: hNaV1.7; settings: cited from earlier work
[3] = tested on: hNaV1.2–1.6 and hNaV1.8; settings: ref [22],[23],[24]; cited from earlier work
[4] = tested on: hNaV1.1; settings: ref [22],[23],[24]; cited from earlier work
[5] = tested on: NaV channels and voltage-sensitive potassium (KV) channels; settings: initially NaV channels, later KV channels; ref [28],[29],[30],[31],[32]; cited from earlier work
Excerpt: (§1) To the best of our knowledge, such an effect of the crotalid peptide on cell plasma membrane constituents has never been described in the literature. The simplest explanation is that crotalphine interacts also with lipid membrane constituents since interactions between gating modifier toxins and the lipid membranes surrounding the channel have been previously evidenced. It is therefore likely that, in addition to the Na^+ channel subtype NaV1.7, the crotalid peptide targets also a second cell plasma membrane component. Further experiments are still needed to identify this second me ...

[6] = tested on: certain cells; settings: ref [28],[29],[30],[31],[32]; cited from earlier work
Excerpt: as §1

[7] = tested on: DRG neurons; assay type: cell-based, adult mouse (Swiss, Mus musculus); settings: positive control, 0.1%, 5–75 min; mean ± S.E.M., n = 4
Procedure: The CHO epithelial cell line was cultured as previously described. Primary cultures of DRG neurons were performed using adult female Swiss mice (Mus musculus, 8–12 weeks of age and 25–32 g body weight), purchased from Janvier Elevage (Le Genest-Saint-Isle, France) and acclimatized at the CEA animal facility for at least 48 hr before the experiments. All experimental procedures on mice were permitted by the Animal Ethics Committee of the CEA and the French General Directorate for Research and Innovation (project APAFIS#26651-2020072011192542v1, authorized for E.B. on 20 July 2020 for 5 years). […]
Cell viability was quantified by propidium iodide and trypan blue dye exclusion assays. […] The percentage of viable cells (i.e., the number of non-fluorescent cells relative to the number of total cells) was determined using the ImageJ 1.53g software (National Institutes of Health, Bethesda, MD, USA). At the end of the experiments, the total fluorescence of each well (function of the amount of propidium iodide-positive dead cells) was measured using a CLARIOstar® Plus microplate reader (BMG Labtech, Champigny-Sur-Marne, France).
The data are expressed as the means ± standard error of the mean (S.E.M.) of n different experiments. […]

Compound: NC1=N[C@H](O)[C@H]2[C@H]3O[C@]4(O)O[C@@H]([C@@H](O)[C@@]2(N1)[C@@H]4O)[C@]3(O)CO [TTX, tetrodotoxin]
- Na^+ current decreased to % of the initial peak amplitude [1]: 8.1 ± 5.1%
- recovery of the current after washout [1]: 83.5 ± 4.5%

Compound: ProTx-II: tarantula venom peptide, a well-known selective inhibitor of the NaV1.7 channel subtype
- IC50 [2]: 0.3 to 1.6 nM
- IC50 [3]: > 25 nM
- IC50 [4]: 16 nM
- decrease in the TTX-sensitive Na^+ current amplitude ([1]; 10 nM, n = 3, unpublished data): 79.2 ± 4.8%

Compound: crotamine: the most abundant protein in the Crotalus durissus terrificus's venom (YKQCHKKGGHCFPKEKICLPPSSDFGKMDCRWRWKCCKKGSG; UniProt Q9PWF3 23-64, looked up)
- effect on functioning of ionic channels [5]: alter the functioning of ionic channels
- effect on cell viability [6]: decrease the viability of certain cells

Compound: triton X-100
- decrease in viability of DRG neurons [7]: 89.1 ± 1.7%
